The structures appear in SMILES notation.

The target in one test is T1, V520F-CFTR (Homo sapiens, UniProt P13569, V520F).
T1 construct: expressed in transfected cells; host or cells: Fischer rat thyroid (FRT) cells; gift from Drs; Andras Rab and Jeong Hong (Emory University)
Briefly: Short-circuit current in FRT cells expressing V520F-CFTR. The class given is cell-based. Particulars: 20 μM forskolin, 5 µM VX-770, 20 µM ASP-11. Here is the method:
(§1) As shown in Fig. 1C and summarized in Fig. 2, ASP-11 acted in synergy with VX-770 to increase chloride current in FRT cells expressing the NBD2 mutations I1234del- and Q1313X-CFTR by ~3–9-fold compared to VX-770. I1234del- and Q1313X-CFTR-expressing cells were also treated with VX-809 for 24 hours (to consider the effect of available CFTR therapeutics) with 2–3-fold greater currents observed.
(§2) Figure 2 Summary of short-circuit current responses to modulators for CFTR mutants in transfected FRT cells. Responses to indicated CFTR mutants with 20 μM forskolin, 5 µM VX-770, 20 µM ASP-11 (with or without 3 µM VX-809 overnight). For reference, data shown for cells expressing wild type CFTR. Mean ± S.E.M., n = 3.
(§3) Short-circuit current was measured on cells cultured on Snapwell clear permeable supports (Corning) as described[10],[11]. Hemichambers were connected to a DVC-1000 voltage clamp (World Precision Instruments Inc., Sarasota, FL) via Ag/AgCl electrodes and 3 M KCl agar bridges for recording of the short-circuit current. For human airway epithelial cells, symmetrical HCO3^−-buffered solutions (in mM: 120 NaCl, 5 KCl, 1 MgCl2, 1 CaCl2, 5 Hepes, 25 NaHCO3, 10 glucose, pH 7.4) for basolateral and apical side were used. […]

For test [1], the target named is T2, N1303K-CFTR (Homo sapiens, UniProt P13569, N1303K).
T2 construct: expressed in transfected cells
T2 sequence (P13569 whole entry N1303K): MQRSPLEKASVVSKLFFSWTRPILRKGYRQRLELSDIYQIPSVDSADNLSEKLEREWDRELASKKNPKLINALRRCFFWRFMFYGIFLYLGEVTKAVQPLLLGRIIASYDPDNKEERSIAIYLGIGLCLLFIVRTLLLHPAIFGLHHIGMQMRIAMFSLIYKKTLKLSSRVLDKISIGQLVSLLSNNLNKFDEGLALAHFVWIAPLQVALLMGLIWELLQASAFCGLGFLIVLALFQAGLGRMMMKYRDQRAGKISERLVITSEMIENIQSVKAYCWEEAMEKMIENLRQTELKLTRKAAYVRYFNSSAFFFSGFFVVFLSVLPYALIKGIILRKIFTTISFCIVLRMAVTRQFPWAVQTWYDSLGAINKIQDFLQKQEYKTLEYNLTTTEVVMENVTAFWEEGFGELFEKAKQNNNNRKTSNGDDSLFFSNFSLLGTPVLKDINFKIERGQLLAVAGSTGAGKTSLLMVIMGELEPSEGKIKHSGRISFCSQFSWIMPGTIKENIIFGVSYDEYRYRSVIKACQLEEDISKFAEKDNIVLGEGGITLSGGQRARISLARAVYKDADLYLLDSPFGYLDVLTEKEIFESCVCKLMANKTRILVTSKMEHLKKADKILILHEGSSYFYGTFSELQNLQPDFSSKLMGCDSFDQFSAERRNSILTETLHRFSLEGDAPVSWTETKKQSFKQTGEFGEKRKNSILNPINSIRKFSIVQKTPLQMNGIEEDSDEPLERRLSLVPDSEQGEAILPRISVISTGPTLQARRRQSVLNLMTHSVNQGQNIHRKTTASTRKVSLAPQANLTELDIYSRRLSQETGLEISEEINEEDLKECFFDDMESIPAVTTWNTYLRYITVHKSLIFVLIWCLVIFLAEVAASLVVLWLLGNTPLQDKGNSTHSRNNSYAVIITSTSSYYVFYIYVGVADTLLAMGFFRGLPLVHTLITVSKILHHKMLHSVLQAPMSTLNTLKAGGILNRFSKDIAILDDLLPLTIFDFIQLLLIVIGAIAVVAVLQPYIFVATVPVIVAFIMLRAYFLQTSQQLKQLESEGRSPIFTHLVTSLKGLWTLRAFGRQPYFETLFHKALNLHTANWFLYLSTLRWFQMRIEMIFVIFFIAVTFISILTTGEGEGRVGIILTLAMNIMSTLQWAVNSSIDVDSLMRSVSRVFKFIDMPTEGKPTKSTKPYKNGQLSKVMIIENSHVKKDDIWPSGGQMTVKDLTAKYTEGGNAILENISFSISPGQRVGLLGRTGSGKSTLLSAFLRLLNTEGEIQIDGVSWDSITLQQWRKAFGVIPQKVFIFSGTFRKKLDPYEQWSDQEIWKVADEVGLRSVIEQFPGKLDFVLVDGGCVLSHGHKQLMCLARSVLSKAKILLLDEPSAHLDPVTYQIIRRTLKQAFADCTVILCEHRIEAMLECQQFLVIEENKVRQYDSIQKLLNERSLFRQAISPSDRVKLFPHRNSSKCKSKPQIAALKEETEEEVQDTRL
Details: method as in PMID 27895116, PMID 29903467. Particulars: transfected FRT cells expressing N1303K-CFTR; cited from earlier work.

Another test concerns the target T3, M1101K-CFTR (Homo sapiens, UniProt P13569, M1101K).
T3 construct: expressed in transfected cells; host or cells: Fischer rat thyroid (FRT) cells; gift from Drs; Andras Rab and Jeong Hong (Emory University)
Kind of test: Short-circuit current in FRT cells expressing M1101K-CFTR. Particulars: 20 μM forskolin, 5 µM VX-770, 20 µM ASP-11. The class given is cell-based. The protocol: as §1, §2, §3

The target in a further test is T4, I1234del-CFTR (Homo sapiens, UniProt P13569, DEL1234-1239).
T4 construct: introduced into full-length CFTR cDNA in the vector pcDNA3.1/Zeo (+); expressed in transfected cells
T4 sequence (P13569 with tags, fused parts or gaps DEL1234-1239): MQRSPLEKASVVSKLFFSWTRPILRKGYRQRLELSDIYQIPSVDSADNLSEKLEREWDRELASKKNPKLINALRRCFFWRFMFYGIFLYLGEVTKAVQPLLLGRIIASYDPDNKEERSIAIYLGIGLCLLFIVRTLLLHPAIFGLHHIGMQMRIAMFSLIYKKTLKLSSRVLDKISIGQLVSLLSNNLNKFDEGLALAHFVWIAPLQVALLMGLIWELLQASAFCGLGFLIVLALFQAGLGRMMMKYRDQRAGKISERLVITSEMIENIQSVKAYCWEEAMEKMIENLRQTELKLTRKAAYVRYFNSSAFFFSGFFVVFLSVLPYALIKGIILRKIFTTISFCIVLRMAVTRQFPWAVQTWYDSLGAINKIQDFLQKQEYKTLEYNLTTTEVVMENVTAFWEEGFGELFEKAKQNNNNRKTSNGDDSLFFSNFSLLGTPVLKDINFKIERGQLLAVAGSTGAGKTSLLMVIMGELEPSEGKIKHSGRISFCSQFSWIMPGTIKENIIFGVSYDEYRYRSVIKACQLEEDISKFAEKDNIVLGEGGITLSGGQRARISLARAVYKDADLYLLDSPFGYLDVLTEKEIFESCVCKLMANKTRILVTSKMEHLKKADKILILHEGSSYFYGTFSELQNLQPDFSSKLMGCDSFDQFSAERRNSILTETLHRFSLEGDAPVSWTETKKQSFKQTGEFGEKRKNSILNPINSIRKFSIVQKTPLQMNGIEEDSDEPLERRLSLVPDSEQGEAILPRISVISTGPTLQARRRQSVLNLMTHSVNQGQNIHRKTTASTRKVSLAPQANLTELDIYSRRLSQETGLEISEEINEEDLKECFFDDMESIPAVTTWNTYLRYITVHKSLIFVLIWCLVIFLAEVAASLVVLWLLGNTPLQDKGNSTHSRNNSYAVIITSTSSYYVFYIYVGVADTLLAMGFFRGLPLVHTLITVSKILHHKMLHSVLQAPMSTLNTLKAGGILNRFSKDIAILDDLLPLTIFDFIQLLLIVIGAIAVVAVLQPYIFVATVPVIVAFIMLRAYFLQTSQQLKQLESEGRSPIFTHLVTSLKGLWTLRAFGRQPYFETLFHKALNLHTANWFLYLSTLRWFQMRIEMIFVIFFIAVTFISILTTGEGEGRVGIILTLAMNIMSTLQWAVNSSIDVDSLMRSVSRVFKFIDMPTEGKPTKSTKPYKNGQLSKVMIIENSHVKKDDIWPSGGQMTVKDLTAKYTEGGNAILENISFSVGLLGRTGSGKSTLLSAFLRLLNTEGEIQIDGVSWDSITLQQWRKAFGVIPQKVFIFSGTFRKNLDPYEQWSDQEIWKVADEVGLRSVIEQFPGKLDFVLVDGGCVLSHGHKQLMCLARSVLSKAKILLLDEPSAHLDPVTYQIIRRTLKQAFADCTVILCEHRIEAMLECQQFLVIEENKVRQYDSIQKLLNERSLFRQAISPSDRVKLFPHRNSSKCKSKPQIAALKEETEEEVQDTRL
Kind of test: Short-circuit current in FRT cells expressing I1234del-CFTR. Particulars: I1234del-CFTR FRT cells; 20 µM forskolin, 5 µM VX-770, 20 µM ASP-11; range stated jointly for I1234del- and Q1313X-CFTR. The class given is cell-based. The protocol:
Figure 1 Co-potentiator ASP-11 activity in minimal function CFTR mutants in transfected FRT cells. (A) Structure of ASP-11. (B) Location of minimal function CFTR mutants studied herein. (C) Representative short-circuit current data in FRT cells expressing I1234del-CFTR, Q1313X-CFTR and S492F-CFTR in response to 20 µM forskolin (fsk), 5 µM VX-770, 20 µM ASP-11 and 10 μM CFTRinh-172. As indicated, cells were treated with 3 µM VX-809 for 18–24 h prior to measurements. (n = 3) (D). Representative short-circuit current data in FRT cells expressing predicted W1282X-CFTR read-through products W1282L-CFTR, W1282R-CFTR and W1282C-CFTR (without and with VX-809 pretreatment) (n = 3). MSD, membrane spanning domain; NBD, nucleotide binding domain; R, regulatory domain.
as §1
(§4) Short-circuit current was measured on cells cultured on Snapwell clear permeable supports (Corning) as described[10],[11]. […]

A further test concerns the target T5, R560T-CFTR (Homo sapiens, UniProt P13569, R560T).
T5 construct: expressed in transfected cells; host or cells: Fischer rat thyroid (FRT) cells; gift from Drs; Andras Rab and Jeong Hong (Emory University)
Briefly: Short-circuit current in FRT cells expressing R560T-CFTR. The class given is cell-based. Particulars: 20 μM forskolin, 5 µM VX-770, 20 µM ASP-11. Here is the method:
as §1, §2, §3

Test [2] concerns the target T2, N1303K-CFTR. Kind of test: Short-circuit current in gene-edited 16HBE14o- cells expressing N1303K-CFTR (16HBE-N1303Kge). Type of test: cell-based. The settings on record: 16HBE-N1303Kge cells; 20 µM compound after 20 µM forskolin and 5 µM VX-770. Here is the method:
(§5) To test the efficacy of new co-potentiators in human airway cell models, short-circuit current was measured in 16HBE14o- human airway epithelial cells in which the endogenous CFTR gene was edited to contain the N1303K mutation (16HBE-N1303Kge[21]) and in primary cultures of human bronchial epithelial cells from a N1303K homozygous CF subject. Addition of forskolin and then VX-770 to 16HBE-N1303Kge cells gave a limited response (Fig. 6A). Subsequent addition of CP-A061 or CP-D123 produced CFTRinh-172-inhibitable responses of ~10 μA/cm^2, ~6-fold greater that that produced by VX-770 alone. Increased short-circuit current was also found for these co-potentiators in the primary human bronchial epithelial cell cultures (Fig. 6B).
(§6) Figure 6 N1303K-CFTR activity in human airway epithelial cell cultures. (A) Short-circuit current in gene-edited 16HBE14o- cells expressing N1303K-CFTR. Concentrations: 20 µM amiloride, 20 µM forskolin, 5 µM VX-770, 20 µM CP-A061 and CP-D123, and 10 µM CFTRinh-172. Representative original curves (left and center) and summary of changes in current (∆Isc) (right). Mean ± S.E.M., n = 3, *P < 0.05). (B) Short-circuit current in primary cultures of human bronchial epithelial cells from a homozygous N1303K-CFTR CF subject. […]
as §4

The target in test [3] is T2, N1303K-CFTR. Briefly: Short-circuit current in primary human bronchial epithelial cell cultures from a N1303K homozygous CF subject. The class given is cell-based. The protocol:
as §5, §6, §4

T5 sequence (P13569 whole entry R560T): as the sequence (P13569 whole entry N1303K) above, with R560T, K1303N counted along it
T3 sequence (P13569 whole entry M1101K): as the sequence (P13569 whole entry N1303K) above, with M1101K, K1303N counted along it
T1 sequence (P13569 whole entry V520F): as the sequence (P13569 whole entry N1303K) above, with V520F, K1303N counted along it

In the case of `CCCCn1cc(S(=O)(=O)Nc2ccc(CC)cc2)c2cccnc21` [ASP-11], the “ASP-11 effect on short-circuit current” value at V520F-CFTR, at M1101K-CFTR and at R560T-CFTR was “absence of ASP-11 effect” throughout. At N1303K-CFTR [1], the “increase in chloride current over that produced by a high concentration of VX-770” value is recorded as ~ 8 fold. For the same molecule, the “fold increase in chloride current with ASP-11 plus VX-770 compared to VX-770 alone” value at I1234del-CFTR was 3–9 fold.

Turning to `COc1ccc2[nH]c3c(c2c1)CCNC31CCN(Cc2ccc(F)cc2F)CC1` [Compound A061], at N1303K-CFTR [2], the “CFTRinh-172-inhibitable short-circuit current response” value is listed as ~ 10 μA/cm^2 and the “response relative to that produced by VX-770 alone” value is ~ 6 fold. The “current as equivalent of wildtype CFTR activity” value at N1303K-CFTR [3] (estimate based on similarly cultured non-CF and CF human airway epithelial cell cultures) was ~ 20%. In addition, the CFTRinh-172-inhibitable current at N1303K-CFTR [3] (primary human bronchial cell cultures, homozygous N1303K-CFTR subject, 20 µM compound after forskolin and 5 µM VX-770) is given as ~ 2.5 μA/cm^2.

Source of the values: PMC6881293, “Nanomolar-potency ‘co-potentiator’ therapy for cystic fibrosis caused by a defined subset of minimal function CFTR mutants” (Scientific Reports, 2019).
